Data as given in patent US6914045B2, “Glycopeptide antibiotics” (Wyeth Holdings Corporation, priority 2001, dated 2005).
Values after ≈ are worked out from the molar mass of the structure shown. Square brackets hold non-standard residues; d marks the D form. Peptide text beside a SMILES is read from it. * marks the point of attachment. ξ: configuration not given here. ξEnduracididine(βξ-OH,4'ξ) = N=C1NCC(C(O)C(N)C(=O)O)N1; X2 = OCC1OC(OC2C(CO)OC(*)C(O)C2O)C(O)C(O)C1O

Legend:
Assay in all cases: in vitro antibacterial evaluation, MIC by broth dilution
Type in all cases: cell-based
[1] = tested on: Enterococcus sp.; conditions: broth dilution, 18 hours at 35° C.
Method in brief: (§1)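 MIC = lowest antibiotic concentration preventing visible growth; inoculum 5×10^5 CFU/mL; drug range 64-0.06 μg/mL; Muller-Hinton II […]; NCCLS M7-A2 guidance.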

[2] = tested on: Escherichia coli; conditions: 18 hours at 35° C.
Method in brief: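 Read-out: the lowest concentration at which the test strain fails to grow. Serial dilutions (64-0.06 μg/mL) in Muller-Hinton II […], 5×10^5 CFU/mL inoculum, NCCLS M7-A2 procedure.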

[3] = tested on: Staphylococcus sp.; conditions: broth dilution, 18 hours at 35° C.
Method in brief: as §1

[4] = tested on: Streptococcus sp.; conditions: broth dilution, 18 hours at 35° C.
Method in brief: as §1

N=C1NCC(C(O)C2NC(=O)C(Cc3ccc(OC4OC(CO)C(OC5OC(CO)C(O)C(O)C5O)C(O)C4O)cc3)NC(=O)C(Cc3ccccc3)NC(=O)CNC(=O)C(CO)NC(=O)C(C(O)C3CNC(=N)N3)NC2=O)N1 (stereo not drawn) [Example 296, Cyclo[glycylphenylalanyl-O-(4-O-hexopyranosylhexopyranosyl)tyrosyl-3-(2-iminoimidazolidin-4-yl)seryl-3-(2-iminoimidazolidin-4-yl)serylseryl]] (cyclo(GFY(X2)[ξEnduracididine(βξ-OH,4'ξ)][ξEnduracididine(βξ-OH,4'ξ)]S); configuration not given here)
MIC Enterococcus avium (GC 4558) ([1]; Enterococcus avium (GC 4558)): 128 µg/mL (≈ 114 µM)
MIC Enterococcus faecalis (ATCC 29212) ([1]; Enterococcus faecalis (ATCC 29212)): >128 µg/mL
MIC Enterococcus faecalis (GC 4553) ([1]; Enterococcus faecalis (GC 4553)): >128 µg/mL
MIC Enterococcus faecalis (GC 4554) ([1]; Enterococcus faecalis (GC 4554)): >128 µg/mL
MIC Enterococcus faecalis (GC 6189) ([1]; Enterococcus faecalis (GC 6189)): >128 µg/mL
MIC Enterococcus faecium (GC 2243) ([1]; Enterococcus faecium (GC 2243)): >128 µg/mL
MIC Enterococcus faecium (GC 4556) ([1]; Enterococcus faecium (GC 4556)): >128 µg/mL
MIC Enterococcus faecium (GC 4557) ([1]; Enterococcus faecium (GC 4557)): 128 µg/mL (≈ 114 µM)
MIC Enterococcus faecalis (ATCC 29212) ([1]; strain ATCC 29212): >128 µg/mL
MIC Enterococcus faecalis (GC 2242) ([1]; strain GC 2242): >128 µg/mL
MIC Enterococcus faecium (GC 2243) ([1]; strain GC 2243): >128 µg/mL
MIC Enterococcus faecalis (GC 2691) ([1]; strain GC 2691): >128 µg/mL
MIC Enterococcus faecalis (GC 3059) ([1]; strain GC 3059): >128 µg/mL
MIC Enterococcus faecalis (GC 4552) ([1]; strain GC 4552): >128 µg/mL
MIC Enterococcus faecalis (GC 4553) ([1]; strain GC 4553): >128 µg/mL
MIC Enterococcus faecalis (GC 4554) ([1]; strain GC 4554): >128 µg/mL
MIC Enterococcus faecium (GC 4556) ([1]; strain GC 4556): >128 µg/mL
MIC Enterococcus faecium (GC 4557) ([1]; strain GC 4557): 128 µg/mL (≈ 114 µM)
MIC Enterococcus avium (GC 4558) ([1]; strain GC 4558): 128 µg/mL (≈ 114 µM)
MIC Enterococcus faecalis (GC 6189) ([1]; strain GC 6189): >128 µg/mL
MIC Escherichia coli (ATCC 25922) ([2]; Escherichia coli (ATCC 25922)): >128 µg/mL
MIC Escherichia coli (GC 4559) ([2]; Escherichia coli (GC 4559)): >128 µg/mL
MIC Escherichia coli (GC 4560) ([2]; Escherichia coli (GC 4560)): >128 µg/mL
MIC Coagulase Negative Staphylococcus (GC 4547) [3]: >128 µg/mL
MIC Coagulase Negative Staphylococcus (GC 4548) [3]: >128 µg/mL
MIC Coagulase Negative Staphylococcus (GC 4549) [3]: >128 µg/mL
MIC Coagulase Negative Staphylococcus (GC 4551) [3]: >128 µg/mL
MIC Staphylococcus aureus (ATCC 29213) [3]: >128 µg/mL
MIC Staphylococcus aureus (GC 1131) [3]: >128 µg/mL
MIC Staphylococcus aureus (GC 3051) [3]: >128 µg/mL
MIC Staphylococcus aureus (GC 3053) [3]: >128 µg/mL
MIC Staphylococcus aureus (GC 4541) [3]: >128 µg/mL
MIC Staphylococcus aureus (GC 4542) [3]: >128 µg/mL
MIC Staphylococcus aureus (GC 4544) [3]: >128 µg/mL
MIC Staphylococcus aureus (GC 4545) [3]: >128 µg/mL
MIC Staphylococcus aureus-SMITH (GC 4543) [3]: >128 µg/mL
MIC Staphylococcus haemolyticus (GC 4546) [3]: >128 µg/mL
MIC Staphylococcus aureus (ATCC 29213) ([3]; strain ATCC 29213): >128 µg/mL
MIC Staphylococcus aureus (GC 1131) ([3]; strain GC 1131): >128 µg/mL
MIC Staphylococcus aureus (GC 3051) ([3]; strain GC 3051): >128 µg/mL
MIC Staphylococcus aureus (GC 3053) ([3]; strain GC 3053): >128 µg/mL
MIC Staphylococcus aureus (GC 4541) ([3]; strain GC 4541): >128 µg/mL
MIC Staphylococcus aureus (GC 4542) ([3]; strain GC 4542): >128 µg/mL
MIC Staphylococcus aureus (GC 4544) ([3]; strain GC 4544): >128 µg/mL
MIC Staphylococcus aureus (GC 4545) ([3]; strain GC 4545): >128 µg/mL
MIC Staphylococcus haemolyticus (GC 4546) ([3]; strain GC 4546): >128 µg/mL
MIC Coagulase Negative Staphylococcus (GC 4547) ([3]; strain GC 4547): >128 µg/mL
MIC Coagulase Negative Staphylococcus (GC 4548) ([3]; strain GC 4548): >128 µg/mL
MIC Coagulase Negative Staphylococcus (GC 4549) ([3]; strain GC 4549): >128 µg/mL
MIC Coagulase Negative Staphylococcus (GC 4551) ([3]; strain GC 4551): >128 µg/mL
MIC Staphylococcus aureus-SMITH (GC 4543) ([3]; strain SMITH GC 4543): >128 µg/mL
MIC Streptococcus pneumoniae (ATCC 6301) ([4]; strain ATCC 6301): >128 µg/mL
MIC Streptococcus pneumoniae (GC 1894) ([4]; strain GC 1894): 128 µg/mL (≈ 114 µM)
MIC Streptococcus pyogenes (GC 4563) ([4]; strain GC 4563): >128 µg/mL
MIC Streptococcus agalactiae (GC 4564) ([4]; strain GC 4564): >128 µg/mL
MIC Streptococcus pneumoniae (GC 4565) ([4]; strain GC 4565): >128 µg/mL
